Data published in the supplement of paper PMC10290057.
Structures can show the parent of a compound that is named as a salt.

Assays:
[1] = system: HCT116; experiment: efficacy (fitted maximal change in viability relative to DMSO control); higher = less cytotoxic (negative = loss of viability); conditions: 48 h
[2] = system: HCT116; experiment: AC50 cell viability (CellTiter-Glo); higher = less potent; conditions: 48 h
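Wherever AC50 cell viability (CellTiter-Glo) is given: HCT116 colorectal carcinoma cells screened at five concentrations per compound, luminescent viability scaled between DMSO wells and empty wells on each plate, curves fitted per compound.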
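Wherever efficacy (fitted maximal change in viability relative to DMSO control) is given: Luminescence-based viability readout, five doses per compound, normalized against on-plate DMSO and empty-well controls, followed by dose-response curve fitting for every drug.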

SMILES | efficacy [1] [%] | AC50 cell viability [2] [µM]
Cc1[nH]c(/C=C2\C(=O)Nc3ccc([S+](=O)([O-])N(C)c4cccc(Cl)c4)cc32)c(C)c1C(=O)N1CCN(C)CC1 [SU-MI-2] | -113 | 14.8
CCC(C1CCC(C)C(O1)C(C)C(O)C(C)C(=O)C(CC)C2OC\3(O[C@]4(CC[C@@](C)(O4)C5CC[C@@](O)(CC)C(C)O5)C(O)\C=C3)C(C)CC2C)C([O-])=O (some centres not stated) [Salinomycin] | -98.3 | 13.2
CN1CCN(CCOc2cc(OC3CCOCC3)c3c(Nc4c(Cl)ccc5c4OCO5)ncnc3c2)CC1 [Saracatinib] | -101 | 18.6
[O-][n+]1cccc(-c2nc3c(Cl)cccc3cc2[C@@H](Nc2ncnc3cccnc23)C(F)(F)F)c1 [Seletalisib] | -49.3 | 18.6
CC[C@H](CO)Nc1nc(NCc2ccccc2)c2ncn(C(C)C)c2n1 [Seliciclib] | -84.6 | 10.5
O=C(/C=C\n1cnc(-c2cc(C(F)(F)F)cc(C(F)(F)F)c2)n1)NNc1cnccn1 [Selinexor] | -93.1 | 0.372
Cc1cc(F)c(C(=O)Nc2cccc(-c3nncn3C(C)C)n2)cc1-n1cnc(C2CC2)c1 [Selonsertib] | -73.8 | 16.6
Cn1cnc2c(F)c(Nc3ccc(Br)cc3Cl)c(C(=O)NOCCO)cc21 [Selumetinib] | -77 | 0.525
CN1CCN(C(=O)c2ccc3cc(CCNc4ncnc5ccc(C#N)cc45)ccc3c2)CC1 [Senexin-B] | -72.9 | 13.2
C=C1/C(=C/C=C2\CCCC3(C)[C@@H]([C@H](C)/C=C/C=C/C(O)(CC)CC)CC[C@@H]23)C[C@@H](O)C[C@@H]1O (some centres not stated) [Seocalcitol] | -31.2 | 18.6
COCCn1c2c([n+](Cc3cnccn3)c1C)C(=O)c1ccccc1C2=O [Sepantronium bromide] | -93.8 | 0.00833
Nc1nc2cc(-c3ccc4ncc(C(=O)N5CCOCC5)n4c3)ccc2o1 [Serabelisib] | -53.2 | 4.68
c1ccc2c(CCNc3ccc(Nc4ccncc4)cc3)c[nH]c2c1 [Serdemetan] | -89.6 | 5.9
CN[C@H]1CC[C@@H](c2ccc(Cl)c(Cl)c2)c2ccccc21 [Sertraline hydrochloride] | -98.8 | 20.9
O=C(O)c1ccc2c(c1)nc(Nc1cccc(Cl)c1)c1ccncc12 [Silmitasertib] | -87.1 | 5.9
CN1CCN(c2ncc(-c3cc(Cl)cc(Cl)c3Cl)c(N)n2)CC1 [Sipatrigine] | -74.6 | 18.6
COCCNCc1ccc(-c2cc3nccc(Oc4ccc(NC(=O)C5(C(=O)Nc6ccc(F)cc6)CC5)cc4F)c3s2)nc1 [Sitravatinib] | -104 | 6.61
Cc1c(C(=O)Nc2ccc(N3C[C@@H](C)O[C@@H](C)C3)nc2)cccc1-c1ccc(OC(F)(F)F)cc1 [Sonidegib] | -74.9 | 20.9
CNC(=O)c1cc(Oc2ccc(NC(=O)Nc3ccc(Cl)c(C(F)(F)F)c3)cc2)ccn1 [Sorafenib] | -95 | 9.34

SMILES | efficacy [1] [%] | AC50 cell viability [2] [µM]
CN1CCN(CC1)C2=NC3=C(C=CC=C3)C(=N2)C/4=C(/C(=O)NC4=O)C5=C[NH]C6=C5C=CC=C6 [Sotrastaurin] | -83.5 | 23.5
Fc1ccc(CNc2ncnc3ccc(F)cc23)cc1 [Spautin-1] | -34.2 | 1.48
C=CC(=O)Nc1cccc(Nc2nc(Nc3ccc(OCCOC)cc3)ncc2F)c1 [Spebrutinib (AVL-292)] | -107 | 14.8
NCCCCNCCCN [Spermidine] | -78.6 | 23.5
CO[C@@H]1C(N(C)C(=O)c2ccccc2)C[C@H]2O[C@]1(C)n1c3ccccc3c3c4c(c5c6ccccc6n2c5c31)C(=O)NC4=O (some centres not stated) [Stauprimide] | -50 | 1.66
CN[C@@H]1C[C@H]2O[C@@](C)([C@@H]1OC)n1c3ccccc3c3c4c(c5c6ccccc6n2c5c31)C(=O)NC4 [Staurosporine] | -89.4 | 0.0468
CC(C)n1cnc2c(NCCc3ccc(O)cc3)nc(-c3csc4ccccc34)nc21 [StemRegenin 1] | -91.3 | 18.6
C[C@@H]1O[C@@H](O[C@H]2C[C@@H](O)[C@]3(CO)[C@H]4[C@H](O)C[C@]5(C)[C@H](CC[C@]5(O)[C@@H]4CC[C@]3(O)C2)C/6=C/C(=O)OC6)[C@H](O)[C@H](O)[C@H]1O [Strophantine octahydrate] | -75.8 | 0.0263
CONC(=O)Nc1ccc(-c2sc3c(c2CN(C)Cc2ccccc2)c(=O)n(-c2ccccc2)c(=O)n3Cc2c(F)cccc2F)cc1 [Sufugolix] | -35.8 | 16.6
Cc1cc2cc(Oc3ccnc(Nc4cccc(C[S+](=O)([O-])NCCN(C)C)c4)n3)ccc2[nH]1 [Sulfatinib] | -101 | 11.8
CCN(CC)CCNC(=O)c1c(C)[nH]c(/C=C2\C(=O)Nc3ccc(F)cc32)c1C [Sunitinib malate] | -98.2 | 3.32
Fc1ccc(-c2nc(-c3ccccc3F)[nH]c2-c2ccncc2)cc1 [TA02] | -48.4 | 16.6
COc1cc(N2CCC(N3CCN(C)CC3)CC2)ccc1Nc1ncc(Cl)c(Nc2ccccc2[S+](=O)([O-])C(C)C)n1 [TAE-684] | -110 | 1.18
CC(C)(O)CC(=O)NCCn1ccc2ncnc(Nc3ccc(Oc4cccc(C(F)(F)F)c4)c(Cl)c3)c21 [TAK-285] | -101 | 16.6
Cc1cc(C(=O)Nc2cc(Oc3ccc4nc(NC(=O)C5CC5)cn4n3)ccc2C)n(C)n1 [TAK-593] | -56.7 | 14.8
CCc1nc(-c2cccc(C)c2)c(-c2ccnc(NC(=O)c3ccccc3)c2)s1 [TAK-715] | -72.7 | 26.3
CC[S+](=O)([O-])c1cccc(-c2cc(C(=O)NC3CCN(C)CC3)c(C)c3[nH]c4ncc(C)cc4c23)c1 [TAK-901] | -76.3 | 0.417
CC1=N[NH]C=C1C2=CC\3=C(S2)C(=O)NC(=N3)\[C@@H]4CC5CCN4CC5 [TAK-931] | -65.2 | 2.63
COc1cc(C(=O)NC2CCN(C)CC2)c(F)cc1Nc1ncc2c(n1)N(C1CCCC1)CC(F)(F)C(=O)N2C [TAK-960] | -120 | 1.32

SMILES | efficacy [1] [%] | AC50 cell viability [2] [µM]
CCc1cc(C(N)=O)ccc1-n1nc(C(C)C)c2c(-n3cnc(-c4cnn(C)c4)c3)ccnc21 [TAS-116] | -65.3 | 1.05
Oc1ccc(-c2ccc(-c3cc(Nc4cccc(CNC5CC5)c4)[nH]n3)cc2)c(O)c1 [TCS-2312] | -77.1 | 3.32
N#Cc1c(NC(=O)c2cccc3ccccc23)sc2c1CCCC2 [TCS-JNK-5a] | -61.6 | 0.417
CCN1/C(=C/C(C)=O)Sc2ccc(OC)cc21 [TG-003] | -41.4 | 14.8
Cc1cnc(Nc2ccc(CN3CCOCC3)cc2)nc1Nc1cccc([S+](=O)([O-])NC(C)(C)C)c1 [TG-46] | -97.9 | 2.63
Cc1cnc(Nc2cccc(CN3CCOCC3)c2)nc1Nc1cccc([S+](=O)([O-])NC(C)(C)C)c1 [TG-89] | -35.5 | 1.66
CC(NC1=CC=CC=C1)C\2=C\C(=C/N3C(=O)\C=C(/N=C23)N4CCOCC4)C (configuration not stated) [TGX-221] | -44.2 | 18.6
CN(C)C/C=C/C(=O)Nc1ccc(C(=O)Nc2cccc(Nc3ncc(Cl)c(-c4c[nH]c5ccccc45)n3)c2)cc1 [THZ1] | -67.4 | 0.0661
CN(C)C/C=C/C(=O)Nc1ccc(C(=O)N2CCC[C@@H](Nc3ncc(Cl)c(-c4c[nH]c5ccccc45)n3)C2)cc1 [THZ531] | -74.2 | 0.132
CN(C)C/C=C/C(=O)Nc1cccc(C(=O)Nc2cccc(Nc3ncc(Cl)c(-c4c[nH]c5ccccc45)n3)c2)c1 [THZ-2] | -78.8 | 0.0934
CC1=CC=CC=C1CN2C(=O)C/3=C(/CCN(CC4=CC=CC=C4)C3)N\5CC\N=C25 [TIC-10] | -62.1 | 2.95
CN1CCN(Cc2ccc(Nc3ncc(Cl)/c(=N\c4ccccc4[S+](=O)([O-])N(C)C)[nH]3)cc2)CC1 [TP-0903] | -65.8 | 0.027
CC(C)(O)[C@H]1CC[C@H](Nc2ccc3ncc(-c4cccc(C(F)(F)F)c4)n3n2)CC1 [TP-3654] | -43.7 | 1.66
NC(=O)Nc1sc(-c2ccc(F)cc2)cc1C(N)=O [TPCA-1] | -74.4 | 14.8
Cc1ccc([S+](=O)([O-])N[C@@H](Cc2ccccc2)C(=O)CCl)cc1 [TPCK] | -77.8 | 18.6
CCC(=O)N1CCOc2c(cc(-c3cc(OC)cc(OC)c3)cc2C(=O)N[C@H]2CCCN(C)C2)C1 [TPOP-146] | -79.1 | 20.9
C[C@H]1CNC(=O)c2cnn3ccc(nc23)N[C@H](C)c2cc(F)ccc2O1 [TPX-0005] | -87.5 | 2.35
Clc1ccccc1C(c1ccccc1)(c1ccccc1)n1cccn1 [TRAM-34] | -41.5 | 18.6
